Columns and labels:
[1] = target: T1, PI3K-delta (Homo sapiens, UniProt O00329); assay: HTRF PI3K biochemical assay, delta isoform; conditions: form screened (neutral or TFA salt) given, read-out: PI3Kdelta IC50
T1 construct: purchased Upstate; Millipore 14-604
Source text: HTRF PI3K Biochemical Assay to Measure Intrinsic Potency of Compound Inhibitors
This assay was developed and further optimized from a kit produced by Upstate (Millipore catalog #33-047) and has been configured for HTS and SAR screening. Briefly, this procedure exploits the exquisite specificity and high affinity binding of enzyme reaction substrate phosphatidyl(3,4,5)triphosphate (PIP3) to the GRP1 pleckstrin homology (PH) domain to generate the signal. In the absence of PIP3, an HTRF (Homogeneous Time-Resolved Fluorescence energy transfer) complex is formed consisting of europium (Eu)-labeled anti-GST, GSTtagged GRP1-PH domain, biotin-PIP3 and streptavidin conjugated APC. The native PIP3 produced by PI3-Kinase activity disrupts in a competitive manner the biotin-PIP3 from the PH domain, resulting in the loss of energy transfer (HTRF complex) and a decrease in the signal. The format of this assay is the same for all 4 isoforms of PI3K; the differences lie in the concentration of enzyme used to achieve robust assay window. The alpha, beta, and delta assays are run at 0.5, 1, and 0.3 nM enzymes and the gamma assay is run at 5 nM enzyme. The ATP concentration is 100 uM in the alpha, beta, and delta assays and 50 uM ATP in the gamma assay. All reactions are run at 5 uM PIP2.
Compounds are serially diluted (3-fold in 100% DMSO) across a 384-well polypropylene source plated from column 3 to column 12 and column 13 to column 22, to yield 10 concentration dose response for each test compound. Columns 1, 2, 23 and 24 contain either only DMSO or pharmacological known control inhibitor.
The PI3-Kinase biochemical assay was optimized using the HTRF kit provided by Upstate (Millipore). The assay kit contains six reagents: 1) 4× Reaction Buffer; 2) native PIP2 (substrate); 3) Stop (EDTA); 4) Detection Mix A (Streptavidin-APC); 5) Detection Mix B (Eu-labeled Anti-GST plus GST-tagged PH-domain); 6) Detection Mix C.
PI3Kinase Reaction Buffer is prepared by dilution the stock 1:4 with de-ionized water. […] Enzyme addition and compound pre-incubation are initiated by the addition of 1.25 ul of PI3K (at twice its final concentration) in the 1× reaction buffer to all wells using a BioRaptor. Plates are incubated at room temperature for 15 minutes. Reactions are initiated by addition of 1.25 ul of 2× substrate solution (PIP2 and ATP in 1× reaction buffer) using BioRaptor. Plates are incubated in humidified chamber at room temperature for one hour. Reactions are quenched by addition of 0.625 uL of stop solution to all wells using the BioRaptor. The quenched reactions are then processed to detect product formation by adding 0.625 uL of Detection Solution to all wells using the BioRaptor (Detection mix C, Detection Mix A, and Detection Mix B combined together in an 18:1:1 ratio prepared 2 hours prior to use).
The loss of the HTRF signal is due to the displacement of biotinylated-PIP3 from the PH domain by the PI3K-dependent conversion of PIP2 to PIP3. This loss of signal is nonlinear with respect to both increasing product and time. This non-linear detection will impact accuracy of IC50 calculations; therefore, there is a need for a correction factor to obtain more accurate IC50 values. This correction is derived from a PIP3 standard curve run in a separate assay plate. All data were calculated using the ratio of acceptor (APC) to donor (Europium) fluorescence in each well of the assay plate. […] An IC50 was then calculated fitting the % inhibition data to the equation: % inhibition=min+(Max−min)/1+([inhibitor]/IC50)^n) where min is the % inhibition with inhibitor, max is the signal in DMSO control, and n is the Hill slope.

[2] = target: T2, PI3K-alpha (Homo sapiens, UniProt P42336); assay: HTRF PI3K biochemical assay, alpha isoform; conditions: ratio PI3K-alpha IC50 value / PI3K-delta IC50 value
T2 construct: purchased Upstate; Millipore 14-602
T2 sequence (P42336 whole entry, canonical isoform): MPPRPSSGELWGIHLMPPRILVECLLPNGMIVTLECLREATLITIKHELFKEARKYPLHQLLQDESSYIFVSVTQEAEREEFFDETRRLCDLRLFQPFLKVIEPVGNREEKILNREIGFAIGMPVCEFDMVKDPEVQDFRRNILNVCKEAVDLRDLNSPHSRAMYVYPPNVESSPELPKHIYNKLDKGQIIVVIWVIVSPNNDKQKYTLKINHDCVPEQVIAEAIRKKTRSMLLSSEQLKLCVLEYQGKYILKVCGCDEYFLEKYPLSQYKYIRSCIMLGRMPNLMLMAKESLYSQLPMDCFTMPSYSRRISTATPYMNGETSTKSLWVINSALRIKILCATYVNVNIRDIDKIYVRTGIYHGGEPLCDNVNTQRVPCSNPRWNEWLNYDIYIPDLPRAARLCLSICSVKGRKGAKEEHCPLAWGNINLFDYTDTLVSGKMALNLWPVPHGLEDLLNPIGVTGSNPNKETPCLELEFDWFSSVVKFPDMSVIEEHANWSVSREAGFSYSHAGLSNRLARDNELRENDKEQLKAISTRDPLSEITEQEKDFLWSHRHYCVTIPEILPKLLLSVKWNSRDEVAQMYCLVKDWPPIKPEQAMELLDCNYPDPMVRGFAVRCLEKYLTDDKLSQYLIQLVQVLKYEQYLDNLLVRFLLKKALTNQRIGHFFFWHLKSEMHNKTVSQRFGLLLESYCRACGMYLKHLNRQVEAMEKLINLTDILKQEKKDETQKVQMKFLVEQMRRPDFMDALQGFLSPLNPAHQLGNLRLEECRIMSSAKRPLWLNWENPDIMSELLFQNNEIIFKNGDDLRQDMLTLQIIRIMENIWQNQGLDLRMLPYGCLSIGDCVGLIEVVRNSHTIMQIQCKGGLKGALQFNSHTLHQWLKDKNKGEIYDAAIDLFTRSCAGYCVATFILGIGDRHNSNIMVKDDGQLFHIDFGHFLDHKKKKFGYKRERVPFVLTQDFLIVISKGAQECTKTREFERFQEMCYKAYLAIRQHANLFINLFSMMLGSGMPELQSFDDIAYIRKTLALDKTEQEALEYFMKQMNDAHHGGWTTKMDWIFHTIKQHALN
T2 sequence (P27986 whole entry partner, canonical isoform): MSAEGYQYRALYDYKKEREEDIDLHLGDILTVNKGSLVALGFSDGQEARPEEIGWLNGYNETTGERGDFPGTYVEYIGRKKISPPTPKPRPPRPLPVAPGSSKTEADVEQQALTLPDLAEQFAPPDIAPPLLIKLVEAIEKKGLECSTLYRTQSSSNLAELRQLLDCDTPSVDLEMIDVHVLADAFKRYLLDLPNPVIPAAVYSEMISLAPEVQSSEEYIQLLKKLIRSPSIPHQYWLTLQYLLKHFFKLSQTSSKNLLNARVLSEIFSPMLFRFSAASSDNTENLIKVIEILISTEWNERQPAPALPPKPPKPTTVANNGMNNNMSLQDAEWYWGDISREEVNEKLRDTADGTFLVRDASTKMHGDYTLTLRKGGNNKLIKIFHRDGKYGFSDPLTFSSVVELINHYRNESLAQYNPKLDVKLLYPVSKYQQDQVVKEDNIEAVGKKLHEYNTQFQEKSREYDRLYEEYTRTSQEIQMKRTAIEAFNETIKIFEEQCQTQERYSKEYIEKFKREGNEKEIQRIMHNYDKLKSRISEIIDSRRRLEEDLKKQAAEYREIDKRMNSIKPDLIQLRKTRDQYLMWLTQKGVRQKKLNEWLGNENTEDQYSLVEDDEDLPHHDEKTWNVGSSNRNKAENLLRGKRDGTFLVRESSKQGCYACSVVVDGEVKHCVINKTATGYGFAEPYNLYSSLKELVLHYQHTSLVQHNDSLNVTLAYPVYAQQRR

T1 sequence (O00329 whole entry, canonical isoform): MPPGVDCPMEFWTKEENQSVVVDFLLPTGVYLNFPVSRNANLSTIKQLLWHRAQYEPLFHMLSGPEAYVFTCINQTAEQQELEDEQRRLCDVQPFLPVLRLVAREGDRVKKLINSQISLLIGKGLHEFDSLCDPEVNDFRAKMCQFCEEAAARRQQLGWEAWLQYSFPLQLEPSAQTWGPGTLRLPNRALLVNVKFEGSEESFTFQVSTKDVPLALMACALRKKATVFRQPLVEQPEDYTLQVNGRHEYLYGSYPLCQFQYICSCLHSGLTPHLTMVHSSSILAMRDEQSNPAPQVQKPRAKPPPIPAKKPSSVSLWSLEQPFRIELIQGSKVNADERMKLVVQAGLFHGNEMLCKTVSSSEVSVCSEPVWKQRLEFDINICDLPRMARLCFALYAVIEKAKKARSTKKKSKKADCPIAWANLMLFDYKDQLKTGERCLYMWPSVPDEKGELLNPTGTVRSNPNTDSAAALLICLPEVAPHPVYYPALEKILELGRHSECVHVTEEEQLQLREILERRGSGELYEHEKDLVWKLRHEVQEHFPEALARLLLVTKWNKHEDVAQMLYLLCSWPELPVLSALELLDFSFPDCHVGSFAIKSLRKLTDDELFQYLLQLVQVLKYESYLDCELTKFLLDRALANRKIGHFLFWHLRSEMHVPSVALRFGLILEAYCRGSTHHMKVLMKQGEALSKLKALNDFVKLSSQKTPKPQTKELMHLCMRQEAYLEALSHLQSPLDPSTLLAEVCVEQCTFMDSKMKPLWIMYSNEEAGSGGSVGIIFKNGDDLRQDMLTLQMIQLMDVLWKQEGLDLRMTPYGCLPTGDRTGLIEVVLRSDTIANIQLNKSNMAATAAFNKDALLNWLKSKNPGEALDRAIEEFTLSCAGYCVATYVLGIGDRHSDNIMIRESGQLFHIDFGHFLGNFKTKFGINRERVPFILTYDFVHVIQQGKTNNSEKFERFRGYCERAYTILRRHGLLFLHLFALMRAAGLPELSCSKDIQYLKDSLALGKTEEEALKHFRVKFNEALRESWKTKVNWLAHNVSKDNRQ
T1 sequence (P27986 whole entry partner, canonical isoform): as the sequence (P27986 whole entry partner, canonical isoform) above

SMILES	IC50 [1]	Selectivity versus PI3Kalpha [2]
CCCN1CC(Nc2ncnc3c2nc(-c2cnn(CC)c2C)n3C)CC1=O (racemic) [Compound 14-1, 4(S and R)-{[8-(1-ethyl-5-methyl-1H-pyrazol-4-yl)-9-methyl-9H-purin-6-yl]amino}-1-propylpyrrolidin-2-one]	0.011 µM	>10
CCn1c(-c2cnc(C)nc2)nc2c(N[C@H]3CCN(C(=O)C4CCCO4)C3)ncnc21 (single isomer, unassigned) [Compound 2-32, 9-ethyl-8-(2-methylpyrimidin-5-yl)-N-[(3S)-1-((S or R)-tetrahydrofuran-2-ylcarbonyl)pyrrolidin-3-yl]-9H-purin-6-amine]	0.0031 µM	>10
CCn1c(C2CC2)nc2c(N[C@H]3CCN(C(=O)C4CC4)C3)ncnc21 [Compound 7-10, 8-cyclopropyl-N-[(3S)-1-(cyclopropylcarbonyl)pyrrolidin-3-yl]-9-ethyl-9H-purin-6-amine]	0.12 µM	>10
CCC(=O)N1CC[C@H](Nc2ncnc3c2nc(-c2ccc4[nH]ncc4c2)n3C)C1 [Compound 3-3, (S)-1-(3-((8-(1H-indazol-5-yl)-9-methyl-9H-purin-6-yl)amino)pyrrolidin-1-yl)propan-1-one]	0.0043 µM	>10
CCn1c(-c2ccc(C(F)(F)F)nc2)nc2c(N[C@H]3CCN(C(=O)C4CCOC4)C3)ncnc21 (single isomer, unassigned) [Compound 2-101, 9-ethyl-N-{(3S)-1-[(3R or 3S)-tetrahydrofuran-3-ylcarbonyl]pyrrolidin-3-yl}-8-[6-(trifluoromethyl)pyridin-3-yl]-9H-purin-6-amine]	< 0.001 µM	>10
CCn1c(C(=O)NCC(F)(F)F)nc2c(N[C@H]3CCN(C(=O)C4CCC4)C3)ncnc21 [Compound 6-9, 6-{[(3S)-1-(cyclobutylcarbonyl)pyrrolidin-3-yl]amino}-9-ethyl-N-(2,2,2-trifluoroethyl)-9H-purine-8-carboxamide]	0.0033 µM	>10
C=C(C)CN1CC(Nc2ncnc3c2nc(-c2cnn(CC)c2C)n3C)CC1=O (racemic) [Compound 14-2, 4(S and R)-{[8-(1-ethyl-5-methyl-1H-pyrazol-4-yl)-9-methyl-9H-purin-6-yl]amino}-1-(2-methylprop-2-en-1-yl)pyrrolidin-2-one]	0.01 µM	>10
CCn1c(-c2cnc(C)nc2)nc2c(N[C@H]3CCN(C(=O)N4CC(OC)C4)C3)ncnc21 [Compound 12-10, 9-ethyl-N-{(3S)-1-[(3-methoxyazetidin-1-yl)carbonyl]pyrrolidin-3-yl}-8-(2-methylpyrimidin-5-yl)-9H-purin-6-amine]	< 0.001 µM	>10
CCn1ncc(-c2nc3c(N[C@H]4CCN(C(=O)C5CC5)C4)ncnc3n2C)c1C [Compound 2-7, N-[(3S)-1-(cyclopropylcarbonyl)pyrrolidin-3-yl]-8-(1-ethyl-5-methyl-1H-pyrazol-4-yl)-9-methyl-9H-purin-6-amine]	0.0012 µM	>10
CCn1c(-c2cnc(C)nc2)nc2c(N[C@H]3CCCN(C(=O)C4CC4)C3)ncnc21 [Compound 2-28, N-[(3S)-1-(cyclopropylcarbonyl)piperidin-3-yl]-9-ethyl-8-(2-methylpyrimn-5-yl)-9H-purin-6-amine]	0.015 µM	>10
CCn1c(-c2cnc(C)nc2)nc2c(N[C@H]3C[C@@H](C(=O)OC)N(C(=O)C4CC4)C3)ncnc21 [Compound 2-54, methyl (4S)-1-(cyclopropylcarbonyl)-4-{[9-ethyl-8-(2-methylpyrimidin-5-yl)-9H-purin-6-yl]amino}-L-prolinate]	0.063 µM	>10
CCn1c(-c2cnc(C)nc2)nc2c(N[C@H]3CCN(C(=O)[C@H]4C[C@H]4C)C3)ncnc21 [Compound 2-91, 9-ethyl-N-[(3S)-1-{[(1S,2R)-2-methylcyclopropyl]carbonyl}pyrrolidin-3-yl]-8-(2-methylpyrimidin-5-yl)-9H-purin-6-amine]	0.012 µM	>10
CCC(=O)N1CC[C@H](Nc2ncnc3c2nc(C(F)F)n3CC)C1 [Compound 7-13, 8-(difluoromethyl)-9-ethyl-N-[(3S)-1-propanoylpyrrolidin-3-yl]-9H-purin-6-amine]	0.032 µM	>10
CCn1ncc(-c2nc3c(N[C@H]4CCN(C(=O)OC(C)(C)C)C4)ncnc3n2C)c1C [Compound 1-2, tert-butyl (3S)-3-{[8-(1-ethyl-5-methyl-1H-pyrazol-4-yl)-9-methyl-9H-purin-6-yl]amino}pyrrolidine-1-carboxylate]	0.0018 µM	>10
CCn1c(-c2cnc3[nH]ccc3c2)nc2c(N[C@H]3CCN(C(=O)C4CC4)C3)ncnc21 [Compound 3-24, N-[(3S)-1-(cyclopropylcarbonyl)pyrrolidin-3-yl]-9-ethyl-8-(1H-pyrrolo[2,3-b]pyridin-5-yl)-9H-purin-6-amine]	< 0.001 µM	>10
CCn1c(-n2cnc(C(F)(F)F)c2)nc2c(N[C@H]3CCN(C(=O)C4CC4)C3)ncnc21 [Compound 8-3, N-[(3S)-1-(cyclopropylcarbonyl)pyrrolidin-3-yl]-9-ethyl-8-[4-(trifluoromethyl)-1H-imidazol-1-yl]-9H-purin-6-amine]	0.011 µM	>10
CCn1c(-c2cnc(C)nc2)nc2c(N[C@H]3CCN(C(=O)[C@@H]4CCOC4)C3)ncnc21 [Compound 2-40, 9-ethyl-8-(2-methylpyrimidin-5-yl)-N-{(3S)-1-[(3R)-tetrahydrofuran-3-ylcarbonyl]pyrrolidin-3-yl}-9H-purin-6-amine]	0.0016 µM	>10
CCn1c(-c2cnc(C)nc2)nc2c(N[C@H]3CCN(C(=O)C4CN(C(C)C)C4)C3)ncnc21 [Compound 2-79, 9-ethyl-N-[(3S)-1-{[1-(1-methylethyl)azetidin-3-yl]carbonyl}pyrrolidin-3-yl]-8-(2-methylpyrimidin-5-yl)-9H-purin-6-amine]	0.017 µM	>10
CCn1c(-c2cnc(C)nc2)nc2c(N[C@H]3CCN(C(=O)C4CC(C)(C)C4)C3)ncnc21 [Compound 2-59, N-{(3S)-1-[(3,3-dimethylcyclobutyl)carbonyl]pyrrolidin-3-yl}-9-ethyl-8-(2-methylpyrimidin-5-yl)-9H-purin-6-amine]	< 0.001 µM	>10
CCn1c(-c2cnc(C)nc2)nc2c(N[C@H]3CCN(C(=O)N4CC[C@@H](F)C4)C3)ncnc21 [Compound 12-12, 9-ethyl-N-[(3S)-1-{[(3R)-3-fluoropyrrolidin-1-yl]carbonyl}pyrrolidin-3-yl]-8-(2-methylpyrimidin-5-yl)-9H-purin-6-amine]	0.0029 µM	>10
CCn1c(-c2ccc(OC)nc2)nc2c(N[C@H]3CCN(C(=O)OC(C)(C)C)C3)ncnc21 [Compound 1-23, tert-butyl (3S)-3-{[9-ethyl-8-(6-methoxypyridin-3-yl)-9H-purin-6-yl]amino}pyrrolidine-1-carboxylate]	< 0.001 µM	>10
CCn1c(C(F)F)nc2c(N[C@H]3CCN(C(=O)[C@H]4CCCN4C)C3)ncnc21 [Compound 7-19, 8-(difluoromethyl)-9-ethyl-N-[(3S)-1-(1-methyl-D-prolyl)pyrrolidin-3-yl]-9H-purin-6-amine]	0.38 µM	>10
CCn1c(-c2cnc(C)nc2)nc2c(N[C@H]3CCN(C(=O)[C@H]4C[C@@H](OC)C4)C3)ncnc21 [Compound 2-39, 9-ethyl-N-{(3S)-1-[(cis-3-methoxycyclobutyl)carbonyl]pyrrolidin-3-yl}-8-(2-methylpyrimidin-5-yl)-9H-purin-6-amine]	< 0.001 µM	>10
CCC(=O)N1CC[C@H](Nc2ncnc3c2nc(-c2ccc4[nH]ccc4c2)n3C)C1 [Compound 3-8, (S)-1-(3-((8-(1H-indol-5-yl)-9-methyl-9H-purin-6-yl)amino)pyrrolidin-1-yl)propan-1-one]	0.014 µM	>10
CCn1c(-c2cnc(C)nc2)nc2c(NC3CN(C(=O)C4CC4)CC34CC4)ncnc21 (racemic) [Compound 3-17, (R and S)-N-[5-(cyclopropylcarbonyl)-5-azaspiro[2.4]hept-7-yl]-9-ethyl-8-(2-methylpyrimidin-5-yl)-9H-purin-6-amine]	< 0.001 µM	>10
CCn1c(-c2cnc(C)nc2)nc2c(N[C@H]3CCCN(C(=O)OC(C)(C)C)C3)ncnc21 [Compound 1-16, tert-butyl (3S)-3-{[9-ethyl-8-(2-methylpyrimidin-5-yl)-9H-purin-6-yl]amino}piperidine-1-carboxylate]	0.049 µM	>10
CCn1c(C(F)F)nc2c(N[C@H]3CCN(C(=O)N4CCC4)C3)ncnc21 [Compound 7-27, N-[(3S)-1-(azetidin-1-ylcarbonyl)pyrrolidin-3-yl]-8-(difluoromethyl)-9-ethyl-9H-purin-6-amine]	0.0052 µM	>10
CCn1ncc(-c2nc3c(NC4CN(C(=O)C5CCOCC5)C4)ncnc3n2C)c1C [Compound 2-48, 8-(1-ethyl-5-methyl-1H-pyrazol-4-yl)-9-methyl-N-[1-(tetrahydro-2H-pyran-4-ylcarbonyl)azetidin-3-yl]-9H-purin-6-amine]	0.016 µM	>10
CCn1c(-c2cnc(C)nc2)nc2c(N[C@H]3CCN(C(=O)CCNC)C3)ncnc21 [Compound 2-86, 9-ethyl-N-{(3S)-1-[3-(methylamino)propanoyl]pyrroli-din-3-yl}-8-(2-methylpyrimidin-5-yl)-9H-purin-6-amine]	0.046 µM	>10
CCn1c(-c2cnc(C)nc2)nc2c(N[C@H]3CCN(C(=O)N4CC[C@@H](OC)C4)C3)ncnc21 [Compound 12-15]	0.0082 µM	>10

Source: patent US9938281B2 (Merck Sharp & Dohme Corp., priority 2012, dated 2018)
